Source: patent US20240024488A1, “COMPOUNDS AND USES THEREOF” (Foghorn Therapeutics Inc., priority 2020, published 2024)

Experiments:
[1] = target: T1, HiBit-BRG1 fusion protein (Homo sapiens, UniProt P51532); test: HiBiT-BRG1 cell-based degradation assay (Nano-Glo HiBiT Lytic Detection, 24 h); settings: HeLa cell line expressing HiBit-BRG1 and LgBit; for Dmax: read-out: BRG1 HiBit Degradation Maximum (%); for DC50: read-out: BRMG1 HiBit Degradation IC50
T1 construct: expressed in transfected cells
In short: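 HeLa cells stably expressing HiBiT-BRG1 plus LgBit, 5000/well, treated 24 h, then lysed with Nano-Glo HiBiT lytic reagent and luminescence read. % degradation normalised between DMSO (high control) and 2 μM reference BRM/BRG1 degrader (low control).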

HiBit-BRM fusion protein = target: T2, HiBit-BRM fusion protein (Homo sapiens, UniProt P51531); test: HiBiT-BRM cell-based degradation assay (Nano-Glo HiBiT Lytic Detection, 24 h); settings: HeLa cell line expressing HiBiT-BRM; for DC50: read-out: BRM HiBit Degradation IC50
T2 construct: expressed in transfected cells
In short: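 HeLa cells stably expressing HiBiT-BRM were dosed with compounds (10-point 3-fold dilutions, 30 μM final top dose, duplicate) for 24 h. HiBiT signal was read by lytic LgBiT complementation luminescence. Percent degradation was normalised to DMSO (high control) and 2 μM of a reference BRM/BRG1 degrader (low control).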

T1 sequence (P51532 whole entry, the tested form may be a part): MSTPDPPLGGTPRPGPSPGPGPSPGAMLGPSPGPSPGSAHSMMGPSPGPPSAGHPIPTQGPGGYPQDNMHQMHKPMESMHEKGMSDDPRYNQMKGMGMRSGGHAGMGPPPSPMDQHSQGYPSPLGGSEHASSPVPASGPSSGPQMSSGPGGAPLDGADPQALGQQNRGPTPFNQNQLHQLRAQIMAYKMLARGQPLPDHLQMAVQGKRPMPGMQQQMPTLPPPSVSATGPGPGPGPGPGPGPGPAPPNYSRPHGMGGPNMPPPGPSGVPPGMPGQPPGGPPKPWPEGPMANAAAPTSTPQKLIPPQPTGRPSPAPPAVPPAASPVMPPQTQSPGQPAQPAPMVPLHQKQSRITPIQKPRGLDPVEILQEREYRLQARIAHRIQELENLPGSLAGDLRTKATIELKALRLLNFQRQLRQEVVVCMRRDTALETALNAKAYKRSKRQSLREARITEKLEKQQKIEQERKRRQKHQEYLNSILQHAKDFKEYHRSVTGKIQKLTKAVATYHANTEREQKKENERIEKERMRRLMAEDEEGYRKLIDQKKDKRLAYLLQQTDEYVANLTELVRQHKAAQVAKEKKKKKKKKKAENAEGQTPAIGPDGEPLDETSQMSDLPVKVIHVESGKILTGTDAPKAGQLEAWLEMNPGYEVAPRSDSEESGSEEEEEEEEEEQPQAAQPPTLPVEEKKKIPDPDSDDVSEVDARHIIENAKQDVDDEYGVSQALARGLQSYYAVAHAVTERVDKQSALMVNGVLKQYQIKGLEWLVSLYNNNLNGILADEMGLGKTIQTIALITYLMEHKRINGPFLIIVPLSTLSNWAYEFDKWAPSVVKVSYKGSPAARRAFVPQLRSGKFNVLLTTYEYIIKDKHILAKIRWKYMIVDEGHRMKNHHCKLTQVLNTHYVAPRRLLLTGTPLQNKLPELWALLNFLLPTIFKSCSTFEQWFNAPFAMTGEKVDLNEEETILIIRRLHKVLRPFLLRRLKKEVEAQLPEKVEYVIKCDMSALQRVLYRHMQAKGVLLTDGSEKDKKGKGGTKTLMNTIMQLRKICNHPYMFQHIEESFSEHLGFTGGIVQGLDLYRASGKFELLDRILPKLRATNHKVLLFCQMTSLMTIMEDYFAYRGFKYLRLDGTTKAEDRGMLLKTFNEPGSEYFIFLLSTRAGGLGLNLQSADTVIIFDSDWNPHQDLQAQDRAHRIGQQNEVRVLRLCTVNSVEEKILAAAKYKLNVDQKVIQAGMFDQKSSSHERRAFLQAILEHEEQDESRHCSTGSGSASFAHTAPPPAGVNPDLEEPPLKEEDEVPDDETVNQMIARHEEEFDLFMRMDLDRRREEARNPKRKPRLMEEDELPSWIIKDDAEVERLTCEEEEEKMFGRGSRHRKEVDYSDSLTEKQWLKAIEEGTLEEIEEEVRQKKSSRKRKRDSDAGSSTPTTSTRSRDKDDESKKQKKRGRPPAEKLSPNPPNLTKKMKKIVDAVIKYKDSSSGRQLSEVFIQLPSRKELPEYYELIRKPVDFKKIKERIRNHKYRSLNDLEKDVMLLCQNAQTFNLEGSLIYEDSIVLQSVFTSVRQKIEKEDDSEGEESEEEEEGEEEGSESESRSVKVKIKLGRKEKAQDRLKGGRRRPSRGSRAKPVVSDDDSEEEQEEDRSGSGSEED
T2 sequence (P51531 whole entry, the tested form may be a part): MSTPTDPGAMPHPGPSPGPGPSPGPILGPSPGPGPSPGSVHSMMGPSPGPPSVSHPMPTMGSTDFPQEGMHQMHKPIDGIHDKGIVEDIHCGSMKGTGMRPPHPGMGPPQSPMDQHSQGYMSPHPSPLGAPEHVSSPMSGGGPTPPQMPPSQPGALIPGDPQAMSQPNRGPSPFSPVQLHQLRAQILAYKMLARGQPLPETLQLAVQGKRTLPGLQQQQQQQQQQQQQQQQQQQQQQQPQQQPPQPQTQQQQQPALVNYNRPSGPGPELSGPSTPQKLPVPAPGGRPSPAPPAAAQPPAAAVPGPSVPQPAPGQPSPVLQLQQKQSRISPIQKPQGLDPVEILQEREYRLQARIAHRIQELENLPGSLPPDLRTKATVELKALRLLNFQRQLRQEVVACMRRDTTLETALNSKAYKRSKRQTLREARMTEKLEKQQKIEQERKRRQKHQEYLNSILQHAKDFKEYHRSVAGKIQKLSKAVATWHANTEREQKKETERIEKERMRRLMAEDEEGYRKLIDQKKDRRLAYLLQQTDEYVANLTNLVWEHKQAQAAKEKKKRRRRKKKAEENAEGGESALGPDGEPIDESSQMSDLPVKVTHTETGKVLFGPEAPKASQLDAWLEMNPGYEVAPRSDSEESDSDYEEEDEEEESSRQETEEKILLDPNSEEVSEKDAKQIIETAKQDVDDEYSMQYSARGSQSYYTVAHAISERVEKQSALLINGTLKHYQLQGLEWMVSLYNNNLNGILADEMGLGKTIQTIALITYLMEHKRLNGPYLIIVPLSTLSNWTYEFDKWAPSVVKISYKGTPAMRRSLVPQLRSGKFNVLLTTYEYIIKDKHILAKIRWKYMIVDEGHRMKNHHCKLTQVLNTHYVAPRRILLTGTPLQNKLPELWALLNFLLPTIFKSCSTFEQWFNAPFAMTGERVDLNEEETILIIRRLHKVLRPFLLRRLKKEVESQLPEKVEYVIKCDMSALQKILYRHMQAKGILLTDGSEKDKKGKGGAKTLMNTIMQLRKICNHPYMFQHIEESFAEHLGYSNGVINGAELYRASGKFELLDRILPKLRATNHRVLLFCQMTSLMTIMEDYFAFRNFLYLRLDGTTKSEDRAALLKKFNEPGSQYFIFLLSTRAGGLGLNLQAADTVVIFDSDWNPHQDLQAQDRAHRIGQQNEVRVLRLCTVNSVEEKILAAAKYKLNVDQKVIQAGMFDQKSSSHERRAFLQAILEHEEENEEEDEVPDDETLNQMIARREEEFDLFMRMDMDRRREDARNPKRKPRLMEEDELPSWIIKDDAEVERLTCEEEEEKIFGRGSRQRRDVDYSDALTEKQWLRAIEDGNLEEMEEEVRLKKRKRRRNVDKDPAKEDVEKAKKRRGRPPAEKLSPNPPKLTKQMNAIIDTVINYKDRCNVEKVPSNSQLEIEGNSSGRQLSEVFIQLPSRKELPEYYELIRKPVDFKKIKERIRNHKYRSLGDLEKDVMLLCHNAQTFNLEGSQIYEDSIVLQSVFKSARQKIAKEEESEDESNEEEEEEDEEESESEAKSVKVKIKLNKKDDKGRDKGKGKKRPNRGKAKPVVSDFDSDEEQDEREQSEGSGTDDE

| Structure (SMILES) | Dmax [1] [%] | DC50 (HiBit-BRM fusion protein) [nM] | DC50 [1] [nM] | BRM HiBit Degradation Maximum (%) (HiBit-BRM fusion protein) |
| --- | --- | --- | --- | --- |
| Cc1ncsc1-c1ccc([C@H](C)NC(=O)[C@@H]2C[C@@H](O)CN2C(=O)[C@@H](c2cc(OCCNC(=O)C(=O)N3CC(c4c[nH]c5nnc(-c6ccccc6O)cc45)C3)no2)C(C)C)cc1 (racemic) [Compound 250, (2S,4R)-4-hydroxy-1-((R)-2-(3-(2-(2-(3-(3-(2-hydroxyphenyl)-7H-pyrrolo[2,3-c]pyridazin-5-yl)azetidin-1-yl)-2-oxoacetamido)ethoxy)isoxazol-5-yl)-3-methylbutanoyl)-N-((S)-1-(4-(4-methylthiazol-5-yl)phenyl)ethyl)pyrrolidine-2-carboxamide] | < 50 | > 100 |  | A (“A” indicates maximum degradation ≥ 75%) |
| Cc1ncsc1-c1ccc([C@H](C)NC(=O)[C@@H]2C[C@@H](O)CN2C(=O)[C@@H](c2cc(N3CCN(CCC(=O)N4CC(c5c[nH]c6nnc(-c7ccccc7O)cc56)C4)CC3)no2)C(C)C)cc1 (racemic) [Compound 251, (2S,4R)-4-hydroxy-1-((R)-2-(3-(4-(3-(3-(3-(2-hydroxyphenyl)-7H-pyrrolo[2,3-c]pyridazin-5-yl)azetidin-1-yl)-3-oxopropyl)piperazin-1-yl)isoxazol-5-yl)-3-methylbutanoyl)-N-((S)-1-(4-(4-methylthiazol-5-yl)phenyl)ethyl)pyrrolidine-2-carboxamide] | > 75 | > 100 | > 100 | A (“A” indicates maximum degradation ≥ 75%) |
| Cc1ncsc1-c1ccc([C@H](C)NC(=O)[C@@H]2C[C@@H](O)CN2C(=O)[C@H](c2cc(N3CCN(C(=O)c4cc5cc(-c6ccccc6O)nnc5[nH]4)CC3)no2)C(C)C)cc1 (racemic) [Compound 252, (2S,4R)-4-hydroxy-1-((S)-2-(3-(4-(3-(2-hydroxyphenyl)-7H-pyrrolo[2,3-c]pyridazine-6-carbonyl)piperazin-1-yl)isoxazol-5-yl)-3-methylbutanoyl)-N-((S)-1-(4-(4-methylthiazol-5-yl)phenyl)ethyl)pyrrolidine-2-carboxamide] | < 50 |  |  | C (“C” indicates maximum degradation < 50%) |
| Cc1ncsc1-c1ccc([C@H](C)NC(=O)[C@@H]2C[C@@H](O)CN2C(=O)[C@@H](c2cc(N3CCN(C(=O)c4cc5cc(-c6ccccc6O)nnc5[nH]4)CC3)no2)C(C)C)cc1 (racemic) [Compound 253, (2S,4R)-4-hydroxy-1-((R)-2-(3-(4-(3-(2-hydroxyphenyl)-7H-pyrrolo[2,3-c]pyridazine-6-carbonyl)piperazin-1-yl)isoxazol-5-yl)-3-methylbutanoyl)-N-((S)-1-(4-(4-methylthiazol-5-yl)phenyl)ethyl)pyrrolidine-2-carboxamide] | > 75 | > 100 | > 100 | A (“A” indicates maximum degradation ≥ 75%) |
| Cc1ncsc1-c1ccc([C@H](C)NC(=O)[C@@H]2C[C@@H](O)CN2C(=O)[C@@H](c2cc(OCCN3CC(c4c(C)[nH]c5nnc(-c6ccccc6O)cc45)C3)no2)C(C)C)cc1 (racemic) [Compound 254, (2S,4R)-4-hydroxy-1-((R)-2-(3-(2-(3-(3-(2-hydroxyphenyl)-6-methyl-7H-pyrrolo[2,3-c]pyridazin-5-yl)azetidin-1-yl)ethoxy)isoxazol-5-yl)-3-methylbutanoyl)-N-((S)-1-(4-(4-methylthiazol-5-yl)phenyl)ethyl)pyrrolidine-2-carboxamide] | < 50 | > 10 |  | A (“A” indicates maximum degradation ≥ 75%) |
| Cc1ncsc1-c1ccc([C@H](C)NC(=O)[C@@H]2C[C@@H](O)CN2C(=O)[C@@H](c2cc(OCCN3CC[C@H](c4[nH]c5nnc(-c6ccccc6O)cc5c4C)C3)no2)C(C)C)cc1 (racemic) [Compound 258, (2S,4R)-4-hydroxy-1-((R)-2-(3-(2-((S)-3-(3-(2-hydroxyphenyl)-5-methyl-7H-pyrrolo[2,3-c]pyridazin-6-yl)pyrrolidin-1-yl)ethoxy)isoxazol-5-yl)-3-methylbutanoyl)-N-((S)-1-(4-(4-methylthiazol-5-yl)phenyl)ethyl)pyrrolidine-2-carboxamide] | > 75 | < 10 | > 10 | A (“A” indicates maximum degradation ≥ 75%) |
| Cc1ncsc1-c1ccc([C@H](C)NC(=O)[C@@H]2C[C@@H](O)CN2C(=O)[C@@H](c2cc(OCCN3CC[C@@H](c4[nH]c5nnc(-c6ccccc6O)cc5c4C)C3)no2)C(C)C)cc1 (racemic) [Compound 259, (2S,4R)-4-hydroxy-1-((R)-2-(3-(2-((R)-3-(3-(2-hydroxyphenyl)-5-methyl-7H-pyrrolo[2,3-c]pyridazin-6-yl)pyrrolidin-1-yl)ethoxy)isoxazol-5-yl)-3-methylbutanoyl)-N-((S)-1-(4-(4-methylthiazol-5-yl)phenyl)ethyl)pyrrolidine-2-carboxamide] | > 75 | < 10 | > 10 | A (“A” indicates maximum degradation ≥ 75%) |

Further lines, with some results ahead:

| Dmax [1] [%] | DC50 (HiBit-BRM fusion protein) [nM] | DC50 [1] [nM] | Structure (SMILES) | BRM HiBit Degradation Maximum (%) (HiBit-BRM fusion protein) |
| --- | --- | --- | --- | --- |
| < 50 | > 100 |  | Cc1ncsc1-c1ccc([C@H](C)NC(=O)[C@@H]2C[C@@H](O)CN2C(=O)[C@@H](c2cc(N(C)CCN3CC(c4cc5cc(-c6ccccc6O)nnc5[nH]4)C3)no2)C(C)C)cc1 (racemic) [Compound 256] | A (“A” indicates maximum degradation ≥ 75%) |
| < 50 |  |  | Cc1ncsc1-c1ccc([C@H](C)NC(=O)[C@@H]2C[C@@H](O)CN2C(=O)[C@H](c2cc(N(C)CCN3CC(c4cc5cc(-c6ccccc6O)nnc5[nH]4)C3)no2)C(C)C)cc1 (racemic) [Compound 257, (2S,4R)-4-hydroxy-1-((S)-2-(3-((2-(3-(3-(2-hydroxyphenyl)-7H-pyrrolo[2,3-c]pyridazin-6-yl)azetidin-1-yl)ethyl)(methyl)amino)isoxazol-5-yl)-3-methylbutanoyl)-N-((S)-1-(4-(4-methylthiazol-5-yl)phenyl)ethyl)pyrrolidine-2-carboxamide] | C (“C” indicates maximum degradation < 50%) |
| < 50 | > 10 |  | Cc1ncsc1-c1ccc([C@H](C)NC(=O)[C@@H]2C[C@@H](O)CN2C(=O)[C@@H](c2cc(OCCN3CCC[C@H]3c3cc4cc(-c5ccccc5O)nnc4[nH]3)no2)C(C)C)cc1 (racemic) [Compound 260, (2S,4R)-4-hydroxy-1-((R)-2-(3-(2-((S)-2-(3-(2-hydroxyphenyl)-7H-pyrrolo[2,3-c]pyridazin-6-yl)pyrrolidin-1-yl)ethoxy)isoxazol-5-yl)-3-methylbutanoyl)-N-((S)-1-(4-(4-methylthiazol-5-yl)phenyl)ethyl)pyrrolidine-2-carboxamide] | B (“B” indicates maximum degradation ≥ 50%) |
| < 50 |  |  | Cc1ncsc1-c1ccc([C@H](C)NC(=O)[C@@H]2C[C@@H](O)CN2C(=O)[C@@H](c2cc(OCCN3CCC[C@@H]3c3cc4cc(-c5ccccc5O)nnc4[nH]3)no2)C(C)C)cc1 (racemic) [Compound 261, (2S,4R)-4-hydroxy-1-((R)-2-(3-(2-((R)-2-(3-(2-hydroxyphenyl)-7H-pyrrolo[2,3-c]pyridazin-6-yl)pyrrolidin-1-yl)ethoxy)isoxazol-5-yl)-3-methylbutanoyl)-N-((S)-1-(4-(4-methylthiazol-5-yl)phenyl)ethyl)pyrrolidine-2-carboxamide] | C (“C” indicates maximum degradation < 50%) |
